Laboratory results published in the supplement of paper PMC10307832.

Key:
Assay in all cases: relative viability (nuclei count vs DMSO), 5 days (fraction); higher = more cells survive
[1] = compound: C1=CC2=NC=CN=C2C=C1/C=C/3\C(=O)NC(=O)S3 + CC(=O)c1c(C)c2cnc(Nc3ccc(N4CCNCC4)cn3)nc2n(C2CCCC2)c1=O [Palbociclib] (partner 0.5 µM)
Summary of the method: (§1)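 Five library-drug doses in √10 steps were combined with a fixed anchor-drug dose, or a single drug was given alone, by pin tool to lung cancer cell lines in 1536-well plates the day after seeding. Nuclei were stained and counted after 5 days. Relative viability is the nuclei count in treated wells over that in vehicle wells, taken as the median of duplicate plates.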

[2] = compound: CCN1CCN(c2ccc(Nc3cc(N(C)C(=O)Nc4c(Cl)c(OC)cc(OC)c4Cl)ncn3)cc2)CC1 [BGJ398] + Nc1ncn([C@H]2C[C@H](O)[C@@H](CO)O2)c(=O)n1 [Decitabine] (partner 2 µM)
Summary of the method: as §1

[3] = compound: C1=CC2=NC=CN=C2C=C1/C=C/3\C(=O)NC(=O)S3 + NC(=O)Nc1cc(-c2cccc(F)c2)sc1C(=O)N[C@H]1CCCNC1 [AZD7762] (partner 0.2 µM)
Summary of the method: as §1

[4] = compound: CCN1CCN(c2ccc(Nc3cc(N(C)C(=O)Nc4c(Cl)c(OC)cc(OC)c4Cl)ncn3)cc2)CC1 [BGJ398] + C[C@@H](Oc1cc(-c2cnn(C3CCNCC3)c2)cnc1N)c1c(Cl)ccc(F)c1Cl [Crizotinib] (partner 1 µM)
Summary of the method: as §1

Cell Line | relative viability ([1]; first compound 0.02 µM) | relative viability ([1]; first compound 0.06325 µM) | relative viability ([1]; first compound 0.2 µM) | relative viability ([1]; first compound 0.6325 µM) | relative viability ([1]; first compound 2 µM) | relative viability ([2]; first compound 0.01 µM) | relative viability ([2]; first compound 0.03162 µM) | relative viability ([2]; first compound 0.1 µM) | relative viability ([2]; first compound 0.3162 µM) | relative viability ([2]; first compound 1 µM) | relative viability ([3]; first compound 0.02 µM) | relative viability ([3]; first compound 0.06325 µM) | relative viability ([3]; first compound 0.2 µM) | relative viability ([3]; first compound 0.6325 µM) | relative viability ([3]; first compound 2 µM) | relative viability ([4]; first compound 0.01 µM) | relative viability ([4]; first compound 0.03162 µM) | relative viability ([4]; first compound 0.1 µM) | relative viability ([4]; first compound 0.3162 µM) | relative viability ([4]; first compound 1 µM)
NCI-H522 | 1.06 | 1.08 | 0.876 | 0.816 | 0.749 | 0.665 | 0.625 | 0.685 | 0.665 | 0.644 | 0.811 | 0.919 | 1.07 | 0.772 | 0.86 |  |  |  |  | 
HCC-15 | 0.708 | 0.715 | 0.71 | 0.725 | 0.657 | 0.571 | 0.6 | 0.78 | 0.73 | 0.618 | 1.01 | 1.05 | 1.16 | 1.18 | 1 | 0.861 | 0.825 | 0.782 | 0.885 | 0.9
A-427 | 0.498 | 0.561 | 0.507 | 0.524 | 0.533 | 0.559 | 0.564 | 0.594 | 0.515 | 0.481 | 0.826 | 0.849 | 0.709 | 0.8 | 0.776 | 0.905 | 0.72 | 0.698 | 0.598 | 0.517
NCI-H2228 | 0.591 | 0.665 | 0.79 | 0.705 | 0.606 |  |  |  |  |  |  |  |  |  |  | 0.433 | 0.64 | 0.319 | 0.252 | 0.347
NCI-H1734 | 0.328 |  | 0.333 | 0.352 | 0.318 | 0.456 | 0.555 | 0.409 | 0.404 | 0.47 | 0.579 |  | 0.586 | 0.469 | 0.444 | 0.611 | 0.647 | 0.719 | 0.594 | 0.554
PC-14 | 0.492 | 0.539 | 0.559 | 0.488 | 0.587 | 0.179 | 0.148 | 0.252 | 0.193 | 0.135 | 0.421 | 0.272 | 0.423 | 0.322 | 0.299 | 0.925 | 0.883 | 0.859 | 0.937 | 0.898
NCI-H1915 | 0.538 | 0.578 | 0.561 | 0.512 | 0.533 | 0.271 | 0.248 | 0.28 | 0.281 | 0.241 | 0.704 | 0.712 | 0.705 | 0.703 | 0.713 | 0.847 | 0.869 | 0.998 | 0.936 | 0.886
